In the NIST ThermoML archive (doi:10.1016/j.jct.2019.04.009):
± gives the expanded uncertainty stated by the source.

Assay: mn = molality of the nth substance listed, in mol/kg
Conditions: Liquid, Vibrating tube method

NC(N)=O [urea] + OCCO
mass density [kg/m3], 99.6 kPa
Conditions	288.15 K	298.15 K	308.15 K	318.15 K	328.15 K
m1 = 0.0551	1117.63 ± 0.12	1110.69 ± 0.12	1103.68 ± 0.12	1096.6 ± 0.12	1089.43 ± 0.12
m1 = 0.1487	1118.67 ± 0.12	1111.72 ± 0.12	1104.7 ± 0.12	1097.61 ± 0.12	1090.44 ± 0.12
m1 = 0.3264	1120.61 ± 0.13	1113.63 ± 0.12	1106.59 ± 0.12	1099.51 ± 0.12	1092.34 ± 0.12
m1 = 0.446	1121.88 ± 0.13	1114.89 ± 0.12	1107.84 ± 0.12	1100.77 ± 0.12	1093.59 ± 0.12
m1 = 0.495	1122.39 ± 0.13	1115.41 ± 0.12	1108.35 ± 0.12	1101.28 ± 0.12	1094.1 ± 0.12
m1 = 0.6616	1124.11 ± 0.13	1117.13 ± 0.12	1110.06 ± 0.12	1103 ± 0.12	1095.82 ± 0.12
m1 = 0.8791	1126.28 ± 0.13	1119.33 ± 0.12	1112.26 ± 0.12	1105.19 ± 0.12	1098.01 ± 0.12
m1 = 1.072	1128.14 ± 0.13	1121.24 ± 0.13	1114.15 ± 0.12	1107.09 ± 0.12	1099.92 ± 0.12
m1 = 1.208	1129.41 ± 0.13	1122.55 ± 0.13	1115.46 ± 0.12	1108.4 ± 0.12	1101.23 ± 0.12
m1 = 1.357	1130.76 ± 0.13	1123.96 ± 0.13	1116.88 ± 0.12	1109.83 ± 0.12	1102.66 ± 0.12
m1 = 1.523	1132.23 ± 0.13	1125.51 ± 0.13	1118.42 ± 0.12	1111.4 ± 0.12	1104.22 ± 0.12

NC(N)=O [urea] + O
298.15 K, 100 kPa
Conditions	mass density [kg/m3]
m1 = 0.1001	998.63 ± 0.11
m1 = 0.1999	1000.2 ± 0.11
m1 = 0.3	1001.75 ± 0.11
m1 = 0.4	1003.29 ± 0.11
m1 = 0.5001	1004.81 ± 0.11
